Assays:
Assay in all cases: relative viability (nuclei count vs DMSO), 5 days (fraction); higher = more cells survive
[1] = compound: COc1cc(N2CCC(N3CCN(C)CC3)CC2)ccc1Nc1ncc(Cl)c(Nc2ccccc2S(=O)(=O)C(C)C)n1 [NVP-TAE684] + CC1(C)CCC(c2ccc(Cl)cc2)=C(CN2CCN(c3ccc(C(=O)NS(=O)(=O)c4ccc(N[C@H](CCN5CCOCC5)CSc5ccccc5)c(S(=O)(=O)C(F)(F)F)c4)cc3)CC2)C1 [Navitoclax] (partner 0.5 µM)
Summary of the method: (§1)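 Lung cancer cell lines, seeded in 1536-well plates, were treated the following day by pin tool with a single drug or with five library-drug doses (not always all listed) in √10 steps on top of a fixed anchor-drug dose. Cells were fixed and nuclei stained in one step after 5 days, and nuclei were counted. Relative viability is the nuclei count for treated wells divided by that for vehicle wells, reported as medians of duplicate plates.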

[2] = compound: COc1cc(N2CCC(N3CCN(C)CC3)CC2)ccc1Nc1ncc(Cl)c(Nc2ccccc2S(=O)(=O)C(C)C)n1 [NVP-TAE684] + Nc1nc2[nH]cc(CCc3ccc(C(=O)N[C@@H](CCC(=O)O)C(=O)O)cc3)c2c(=O)[nH]1 [Pemetrexed] (partner 0.2 µM)
Summary of the method: as §1

[3] = compound: COc1cc2/c(=N/c3ccc(Br)cc3F)nc[nH]c2cc1OCC1CCN(C)CC1 [Vandetanib] + O=C(c1cc(Cc2n[nH]c(=O)c3ccccc23)ccc1F)N1CCN(C(=O)C2CC2)CC1 [Olaparib] (partner 8 µM)
Summary of the method: as §1

[4] = compound: COc1cc(N2CCC(N3CCN(C)CC3)CC2)ccc1Nc1ncc(Cl)c(Nc2ccccc2S(=O)(=O)C(C)C)n1 [NVP-TAE684] + C[C@@H](Oc1cc(-c2cnn(C3CCNCC3)c2)cnc1N)c1c(Cl)ccc(F)c1Cl [Crizotinib] (partner 1 µM)
Summary of the method: as §1

[5] = compound: C#Cc1cccc(Nc2ncnc3cc(OC)c(OCCCCCCC(=O)NO)cc23)c1 [CUDC-101] + CC1(C)CCC(c2ccc(Cl)cc2)=C(CN2CCN(c3ccc(C(=O)NS(=O)(=O)c4ccc(N[C@H](CCN5CCOCC5)CSc5ccccc5)c(S(=O)(=O)C(F)(F)F)c4)cc3)CC2)C1 [Navitoclax] (partner 0.5 µM)
Summary of the method: as §1

Cell Line | relative viability ([1]; first compound 0.2 µM) | relative viability ([1]; first compound 0.6325 µM) | relative viability ([1]; first compound 2 µM) | relative viability ([2]; first compound 0.2 µM) | relative viability ([2]; first compound 0.6325 µM) | relative viability ([2]; first compound 2 µM) | relative viability ([3]; first compound 0.02 µM) | relative viability ([3]; first compound 0.06325 µM) | relative viability ([3]; first compound 0.2 µM) | relative viability ([3]; first compound 0.6325 µM) | relative viability ([3]; first compound 2 µM) | relative viability ([4]; first compound 0.2 µM) | relative viability ([4]; first compound 0.6325 µM) | relative viability ([4]; first compound 2 µM) | relative viability ([5]; first compound 0.01 µM) | relative viability ([5]; first compound 0.03162 µM) | relative viability ([5]; first compound 0.1 µM) | relative viability ([5]; first compound 0.3162 µM) | relative viability ([5]; first compound 1 µM)
PC-3 [JPC-3] | 0.862 | 0.822 | 0.658 | 1.16 | 1.08 | 0.903 | 1.06 | 0.961 | 1.06 | 0.747 | 0.557 | 0.993 | 1 | 0.946 | 0.776 | 0.749 | 0.506 | 0.613 | 0.342
IA-LM | 0.762 | 0.641 | 0.687 | – | – | – | 0.969 | 0.874 | 0.864 | 0.867 | 0.849 | 0.626 | 0.692 | 0.62 | 0.685 | 0.806 | 0.698 | 0.832 | 0.281
NCI-H520 | 1.11 | 1.13 | 0.357 | 0.694 | 0.823 | 0.326 | 0.299 | 0.343 | 0.379 | 0.35 | 0.324 | 0.668 | 0.651 | 0.348 | 1.04 | – | 1.03 | 0.987 | 0.316
A549 | 1.38 | – | 0.263 | – | – | – | 0.234 | 0.368 | 0.349 | 0.291 | 0.356 | 0.709 | 0.458 | 0.0727 | 1.34 | 1.12 | 1.19 | 1.2 | 1.15
BEN | 0.188 | 0.0569 | 0.0697 | 0.843 | 0.728 | 0.682 | 1.21 | 1.02 | 1.03 | 1.04 | 1.08 | 0.713 | 0.837 | 0.678 | 0.0901 | 0.0957 | 0.427 | 0.137 | 0.0346
COR-L 105 | 0.717 | 0.74 | 0.593 | 1.01 | 0.98 | – | 0.639 | 0.606 | 0.756 | 0.67 | 0.811 | 0.677 | 0.461 | 0.388 | 0.866 | 0.755 | 0.739 | 0.64 | 0.264
NCI-H1734 | 0.844 | 0.91 | 0.769 | 0.47 | 0.437 | 0.348 | 0.58 | 0.576 | 0.679 | 0.612 | 0.572 | – | 0.7 | 0.424 | 0.959 | 0.82 | 0.917 | 0.911 | 0.501
LOU-NH91 | 0.644 | 0.607 | 0.463 | 0.364 | 0.349 | 0.437 | 0.901 | 0.788 | 0.813 | 0.732 | 0.679 | 0.7 | 0.725 | 0.592 | 0.773 | 0.505 | 0.473 | 0.466 | 0.251
NCI-H2405 | 0.897 | 0.709 | 0.437 | 1.17 | 0.901 | 0.567 | 0.835 | 0.816 | 0.895 | 0.948 | 0.837 | 0.828 | – | 0.644 | 1.12 | 0.842 | 0.953 | 1.17 | 0.665
HCC-15 | 0.72 | 0.681 | 0.375 | 0.245 | 0.204 | 0.182 | 0.72 | 0.677 | 0.782 | 0.713 | 0.722 | 0.806 | 0.792 | 0.319 | 0.689 | 0.69 | 0.762 | 0.678 | 0.566
HCC-44 | – | 1.02 | 0.453 | 0.652 | – | 0.606 | 0.914 | 0.944 | 0.948 | 0.973 | 1 | 0.782 | 0.868 | 0.489 | 0.836 | 0.933 | 0.877 | 1.06 | 0.827
NCI-H1792 | 0.533 | 0.579 | 0.558 | 0.773 | 0.799 | 0.799 | 0.425 | 0.442 | 0.469 | 0.66 | 0.409 | 1.06 | 0.966 | 0.954 | 0.586 | 0.636 | 0.56 | 0.625 | 0.582
NCI-H2347 | 0.716 | 0.826 | 0.752 | 0.431 | 0.38 | 0.406 | 0.538 | 0.525 | 0.596 | 0.692 | 0.553 | 0.683 | 0.619 | 0.617 | 0.88 | 0.797 | 0.751 | 0.937 | 0.783
SW 900 | – | – | – | 0.548 | 0.443 | 0.449 | 0.804 | 0.784 | – | 0.88 | 0.815 | – | – | – | – | – | – | – | –
RERF-LC-KJ | 1.14 | 1.04 | 0.67 | 0.484 | 0.489 | 0.431 | 0.891 | 0.959 | 0.898 | 0.75 | 0.83 | 0.948 | 0.781 | 0.792 | 1.17 | 1.07 | 1.21 | 1.17 | 0.666
NCI-H522 | – | – | – | 1.13 | 1.07 | 0.799 | 0.604 | 0.703 | 0.689 | 0.743 | 0.605 | – | – | – | – | – | – | – | –
NCI-H1666 | 0.932 | 0.919 | 0.566 | 0.985 | 0.796 | 0.77 | 0.787 | 0.749 | 0.812 | 0.758 | 0.754 | 1.07 | 0.841 | 0.526 | 1.07 | 0.796 | 1 | 1.04 | 0.548

— the supplement of paper PMC10307832
